Measurements as given in the supplement of paper PMC4862054.

system: MFM-223; assay: normalised response (% of control), CellTiter-Glo; higher = more viable cells (100 = DMSO, 0 = benzethonium chloride kill control); details: incubation time: 72 h
Protocol: (§1)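 DSRT, 72 h incubation, CellTox Green / CellTiter-Glo readout. Signal is normalised to DMSO and benzethonium chloride controls. Value is the normalised response at dose 3.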

Compound	normalised response
C[C@]12CC[C@@H]3c4ccc(OC(=O)N(CCCl)CCCl)cc4CC[C@H]3[C@@H]1CC[C@@H]2O [Estramustine] (100 nM)	91.4%
CC1(C)CNc2cc(NC(=O)c3cccnc3NCc3ccncc3)ccc21 [Motesanib] (100 nM)	93.8%
CC(=O)c1c(C)c2cnc(Nc3ccc(N4CCNCC4)cn3)nc2n(C2CCCC2)c1=O [Palbociclib] (100 nM)	79.7%
CC[C@@H]1C(=O)OC[C@@H]1Cc1cncn1C [Pilocarpine] (400 nM)	101%
COc1cc(F)c(F)c(Nc2ccc(I)cc2F)c1NS(=O)(=O)C1(C[C@H](O)CO)CC1 [Refametinib] (100 nM)	88.9%

system: BT-549; assay: as above; details: incubation time: 72 h
Protocol: as §1

Compound	normalised response
Cc1sc2c(c1C)C(c1ccc(Cl)cc1)=N[C@@H](CC(=O)OC(C)(C)C)c1nnc(C)n1-2 [(+)JQ1] (100 nM)	76%
Oc1ncnc2[nH]ncc12 [Allopurinol] (100 nM)	91.4%
CC1=C2C[C@H]3[C@@H](CC=C4C[C@@H](O)CC[C@@]43C)[C@@H]2CC[C@]12O[C@@H]1C[C@H](C)CN[C@H]1[C@H]2C [Cyclopamine] (100 nM)	95%
CC(=O)N(O)CCCCCNC(=O)CCC(=O)N(O)CCCCCNC(=O)CCC(=O)N(O)CCCCCN [Deferoxamine] (100 nM)	100%
C[C@]12CC[C@@H]3c4ccc(OC(=O)N(CCCl)CCCl)cc4CC[C@H]3[C@@H]1CC[C@@H]2O [Estramustine] (100 nM)	104%
CC1(C)CNc2cc(NC(=O)c3cccnc3NCc3ccncc3)ccc21 [Motesanib] (100 nM)	99.7%
CC(=O)c1c(C)c2cnc(Nc3ccc(N4CCNCC4)cn3)nc2n(C2CCCC2)c1=O [Palbociclib] (100 nM)	97.9%
CC[C@@H]1C(=O)OC[C@@H]1Cc1cncn1C [Pilocarpine] (400 nM)	102%
COc1cc(F)c(F)c(Nc2ccc(I)cc2F)c1NS(=O)(=O)C1(C[C@H](O)CO)CC1 [Refametinib] (100 nM)	105%

system: HCC1143; assay: as above; details: incubation time: 72 h
Protocol: as §1

Compound	normalised response
Cc1sc2c(c1C)C(c1ccc(Cl)cc1)=N[C@@H](CC(=O)OC(C)(C)C)c1nnc(C)n1-2 [(+)JQ1] (100 nM)	99.5%
Oc1ncnc2[nH]ncc12 [Allopurinol] (100 nM)	106%
CC1=C2C[C@H]3[C@@H](CC=C4C[C@@H](O)CC[C@@]43C)[C@@H]2CC[C@]12O[C@@H]1C[C@H](C)CN[C@H]1[C@H]2C [Cyclopamine] (100 nM)	104%
CC(=O)N(O)CCCCCNC(=O)CCC(=O)N(O)CCCCCNC(=O)CCC(=O)N(O)CCCCCN [Deferoxamine] (100 nM)	99.1%
C[C@]12CC[C@@H]3c4ccc(OC(=O)N(CCCl)CCCl)cc4CC[C@H]3[C@@H]1CC[C@@H]2O [Estramustine] (100 nM)	100%
CC1(C)CNc2cc(NC(=O)c3cccnc3NCc3ccncc3)ccc21 [Motesanib] (100 nM)	95.4%
CC(=O)c1c(C)c2cnc(Nc3ccc(N4CCNCC4)cn3)nc2n(C2CCCC2)c1=O [Palbociclib] (100 nM)	96.5%
CC[C@@H]1C(=O)OC[C@@H]1Cc1cncn1C [Pilocarpine] (400 nM)	98.7%
COc1cc(F)c(F)c(Nc2ccc(I)cc2F)c1NS(=O)(=O)C1(C[C@H](O)CO)CC1 [Refametinib] (100 nM)	89.1%

system: HCC1937; assay: as above; details: incubation time: 72 h
Protocol: as §1

Compound	normalised response
Cc1sc2c(c1C)C(c1ccc(Cl)cc1)=N[C@@H](CC(=O)OC(C)(C)C)c1nnc(C)n1-2 [(+)JQ1] (100 nM)	85%
Oc1ncnc2[nH]ncc12 [Allopurinol] (100 nM)	101%
CC1=C2C[C@H]3[C@@H](CC=C4C[C@@H](O)CC[C@@]43C)[C@@H]2CC[C@]12O[C@@H]1C[C@H](C)CN[C@H]1[C@H]2C [Cyclopamine] (100 nM)	97.2%
CC(=O)N(O)CCCCCNC(=O)CCC(=O)N(O)CCCCCNC(=O)CCC(=O)N(O)CCCCCN [Deferoxamine] (100 nM)	89.7%
C[C@]12CC[C@@H]3c4ccc(OC(=O)N(CCCl)CCCl)cc4CC[C@H]3[C@@H]1CC[C@@H]2O [Estramustine] (100 nM)	95.2%
CC1(C)CNc2cc(NC(=O)c3cccnc3NCc3ccncc3)ccc21 [Motesanib] (100 nM)	96.8%
CC(=O)c1c(C)c2cnc(Nc3ccc(N4CCNCC4)cn3)nc2n(C2CCCC2)c1=O [Palbociclib] (100 nM)	95.7%
CC[C@@H]1C(=O)OC[C@@H]1Cc1cncn1C [Pilocarpine] (400 nM)	96.7%
COc1cc(F)c(F)c(Nc2ccc(I)cc2F)c1NS(=O)(=O)C1(C[C@H](O)CO)CC1 [Refametinib] (100 nM)	88%

system: MDA-MB-231; assay: as above; details: incubation time: 72 h
Protocol: as §1

Compound	normalised response
Cc1sc2c(c1C)C(c1ccc(Cl)cc1)=N[C@@H](CC(=O)OC(C)(C)C)c1nnc(C)n1-2 [(+)JQ1] (100 nM)	94.8%
Oc1ncnc2[nH]ncc12 [Allopurinol] (100 nM)	105%
CC1=C2C[C@H]3[C@@H](CC=C4C[C@@H](O)CC[C@@]43C)[C@@H]2CC[C@]12O[C@@H]1C[C@H](C)CN[C@H]1[C@H]2C [Cyclopamine] (100 nM)	109%
CC(=O)N(O)CCCCCNC(=O)CCC(=O)N(O)CCCCCNC(=O)CCC(=O)N(O)CCCCCN [Deferoxamine] (100 nM)	93.2%
C[C@]12CC[C@@H]3c4ccc(OC(=O)N(CCCl)CCCl)cc4CC[C@H]3[C@@H]1CC[C@@H]2O [Estramustine] (100 nM)	95.4%
CC1(C)CNc2cc(NC(=O)c3cccnc3NCc3ccncc3)ccc21 [Motesanib] (100 nM)	101%
CC(=O)c1c(C)c2cnc(Nc3ccc(N4CCNCC4)cn3)nc2n(C2CCCC2)c1=O [Palbociclib] (100 nM)	95.9%
CC[C@@H]1C(=O)OC[C@@H]1Cc1cncn1C [Pilocarpine] (400 nM)	94.1%
